Results as given in patent US20060062729A1, “Enhanced ligand binding to neurotensin receptors” (priority 2004, published 2006).
Values joined by “and” are separate entries in the source; they are usually repeats but may differ in a detail not shown here. Equal entries are not always repeated. No end group written: not given here.

Key:
EGF receptor = molecular target: T1, EGF receptor (Homo sapiens, UniProt P00533); assay: ^125I-EGF binding to PC3 cells; settings: PC3 cells (text to Table 9)
T1 construct: endogenous in cells; host or cells: PC3 cells (ATCC)

5-LOX = molecular target: T2, 5-LOX (Homo sapiens, UniProt P09917); settings: range of reported values, various blood cell systems; cited from earlier work
T2 sequence (P09917 1-674): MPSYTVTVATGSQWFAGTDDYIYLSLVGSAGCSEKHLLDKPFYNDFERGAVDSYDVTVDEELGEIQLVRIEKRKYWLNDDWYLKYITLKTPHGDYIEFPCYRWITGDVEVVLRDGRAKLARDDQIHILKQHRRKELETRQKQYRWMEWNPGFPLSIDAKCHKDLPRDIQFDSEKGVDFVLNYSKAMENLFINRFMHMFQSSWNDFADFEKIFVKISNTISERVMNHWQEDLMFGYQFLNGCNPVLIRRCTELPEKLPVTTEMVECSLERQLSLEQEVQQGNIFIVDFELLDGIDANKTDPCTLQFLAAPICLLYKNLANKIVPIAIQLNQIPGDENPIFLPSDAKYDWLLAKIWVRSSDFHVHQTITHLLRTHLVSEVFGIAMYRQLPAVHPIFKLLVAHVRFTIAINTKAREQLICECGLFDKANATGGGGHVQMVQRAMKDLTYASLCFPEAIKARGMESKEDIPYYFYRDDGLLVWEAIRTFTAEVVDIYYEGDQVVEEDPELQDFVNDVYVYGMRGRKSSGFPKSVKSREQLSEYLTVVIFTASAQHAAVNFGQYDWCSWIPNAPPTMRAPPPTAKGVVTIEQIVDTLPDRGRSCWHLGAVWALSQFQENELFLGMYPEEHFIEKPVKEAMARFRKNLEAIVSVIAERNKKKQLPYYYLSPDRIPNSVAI

bombesin receptor = molecular target: T3, bombesin receptor (Homo sapiens, UniProt P30550); assay: ^125I-[Nle^14]-bombesin binding to PC3 cells; settings: for Specific Binding (% control) of ^125I-[Nle14]-bombesin: 37° C.
T3 construct: endogenous in cells; host or cells: PC3 cells (ATCC)

NTR1 [1] = molecular target: T4, NTR1 (Homo sapiens, UniProt P30989); assay: ^125I-NT binding to isolated PC3 cell membranes; set-up: Ab-NTR1 detected two major bands in extracts of PC3 cells, the parent protein of 50 kDa; endogenous in cells; host or cells: PC3 cells (ATCC)
NTR1 [2] = molecular target: T4, NTR1; assay: ^125I-NT binding to PC3 cells
NTR1 [3] = molecular target: T4, NTR1; assay: UV crosslinking of ^125I-(4-azido-Phe^6)-NT into immunoprecipitated NTR1 of PC3 cells; type: binding; set-up: Ab-NTR1 detected two major bands in extracts of PC3 cells, the parent protein of 50 kDa; endogenous in cells; host or cells: PC3 cells (ATCC); settings: 50 μM agent
NTR1 [4] = molecular target: T4, NTR1; assay: NT-induced IP formation in PC3 cells; type: cell-based; set-up: Ab-NTR1 detected two major bands in extracts of PC3 cells, the parent protein of 50 kDa; endogenous in cells; host or cells: PC3 cells (ATCC); settings: maximal % decrease in NT-induced IP formation
NTR1 [5] = molecular target: T4, NTR1; type: cell-based; set-up: Ab-NTR1 detected two major bands in extracts of PC3 cells, the parent protein of 50 kDa; endogenous in cells; host or cells: PC3 cells (ATCC); settings: 50 μM agent, 37° C., ^125I-NT prebound at 4° C.
[6] = molecular target: neurotensin-1 receptor (NTR1) (Homo sapiens, UniProt P30989); settings: read-out: binding affinity; cited from earlier work
[7] = molecular target: neurotensin-2 receptor (NTR2) (Homo sapiens, UniProt O95665); settings: read-out: binding affinity; cited from earlier work
PC3 cells = assay: ATP-induced IP formation in PC3 cells; type: cell-based; settings: maximal dose of ATP (10 μM)

T3 sequence (P30550 whole entry): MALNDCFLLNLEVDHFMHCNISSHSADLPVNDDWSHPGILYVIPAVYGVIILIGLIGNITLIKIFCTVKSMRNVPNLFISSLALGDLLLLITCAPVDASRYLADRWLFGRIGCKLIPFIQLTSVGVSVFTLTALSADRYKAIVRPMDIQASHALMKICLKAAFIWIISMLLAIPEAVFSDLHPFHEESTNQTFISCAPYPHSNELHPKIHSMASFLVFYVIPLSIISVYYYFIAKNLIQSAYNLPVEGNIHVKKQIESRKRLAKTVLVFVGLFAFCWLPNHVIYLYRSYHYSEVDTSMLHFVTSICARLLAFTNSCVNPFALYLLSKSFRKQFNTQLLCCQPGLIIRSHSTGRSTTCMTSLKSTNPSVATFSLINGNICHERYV
T4 sequence (P30989 whole entry): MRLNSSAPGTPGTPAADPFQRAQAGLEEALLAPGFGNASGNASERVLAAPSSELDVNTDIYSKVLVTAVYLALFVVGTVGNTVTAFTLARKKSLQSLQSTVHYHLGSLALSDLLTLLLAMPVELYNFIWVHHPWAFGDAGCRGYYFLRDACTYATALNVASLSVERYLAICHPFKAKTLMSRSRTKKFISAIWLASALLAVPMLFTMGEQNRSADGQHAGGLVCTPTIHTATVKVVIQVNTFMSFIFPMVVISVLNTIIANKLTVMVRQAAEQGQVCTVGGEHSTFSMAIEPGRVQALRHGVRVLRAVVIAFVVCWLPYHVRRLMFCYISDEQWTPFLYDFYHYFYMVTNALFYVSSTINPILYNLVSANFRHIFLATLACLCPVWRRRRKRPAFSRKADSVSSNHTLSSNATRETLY
Sequence of neurotensin-2 receptor (NTR2) (O95665 whole entry, species assumed): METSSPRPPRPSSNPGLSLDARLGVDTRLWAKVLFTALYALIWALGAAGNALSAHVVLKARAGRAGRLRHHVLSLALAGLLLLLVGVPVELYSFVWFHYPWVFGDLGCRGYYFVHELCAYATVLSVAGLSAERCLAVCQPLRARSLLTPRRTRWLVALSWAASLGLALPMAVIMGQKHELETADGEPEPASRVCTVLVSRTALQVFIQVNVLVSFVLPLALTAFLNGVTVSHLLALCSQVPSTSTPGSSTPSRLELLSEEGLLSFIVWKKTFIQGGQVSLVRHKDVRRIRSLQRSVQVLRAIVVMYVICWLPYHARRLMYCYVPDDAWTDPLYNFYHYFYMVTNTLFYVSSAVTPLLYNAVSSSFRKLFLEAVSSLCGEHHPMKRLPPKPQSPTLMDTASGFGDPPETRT
T1 sequence (P00533 25-1210): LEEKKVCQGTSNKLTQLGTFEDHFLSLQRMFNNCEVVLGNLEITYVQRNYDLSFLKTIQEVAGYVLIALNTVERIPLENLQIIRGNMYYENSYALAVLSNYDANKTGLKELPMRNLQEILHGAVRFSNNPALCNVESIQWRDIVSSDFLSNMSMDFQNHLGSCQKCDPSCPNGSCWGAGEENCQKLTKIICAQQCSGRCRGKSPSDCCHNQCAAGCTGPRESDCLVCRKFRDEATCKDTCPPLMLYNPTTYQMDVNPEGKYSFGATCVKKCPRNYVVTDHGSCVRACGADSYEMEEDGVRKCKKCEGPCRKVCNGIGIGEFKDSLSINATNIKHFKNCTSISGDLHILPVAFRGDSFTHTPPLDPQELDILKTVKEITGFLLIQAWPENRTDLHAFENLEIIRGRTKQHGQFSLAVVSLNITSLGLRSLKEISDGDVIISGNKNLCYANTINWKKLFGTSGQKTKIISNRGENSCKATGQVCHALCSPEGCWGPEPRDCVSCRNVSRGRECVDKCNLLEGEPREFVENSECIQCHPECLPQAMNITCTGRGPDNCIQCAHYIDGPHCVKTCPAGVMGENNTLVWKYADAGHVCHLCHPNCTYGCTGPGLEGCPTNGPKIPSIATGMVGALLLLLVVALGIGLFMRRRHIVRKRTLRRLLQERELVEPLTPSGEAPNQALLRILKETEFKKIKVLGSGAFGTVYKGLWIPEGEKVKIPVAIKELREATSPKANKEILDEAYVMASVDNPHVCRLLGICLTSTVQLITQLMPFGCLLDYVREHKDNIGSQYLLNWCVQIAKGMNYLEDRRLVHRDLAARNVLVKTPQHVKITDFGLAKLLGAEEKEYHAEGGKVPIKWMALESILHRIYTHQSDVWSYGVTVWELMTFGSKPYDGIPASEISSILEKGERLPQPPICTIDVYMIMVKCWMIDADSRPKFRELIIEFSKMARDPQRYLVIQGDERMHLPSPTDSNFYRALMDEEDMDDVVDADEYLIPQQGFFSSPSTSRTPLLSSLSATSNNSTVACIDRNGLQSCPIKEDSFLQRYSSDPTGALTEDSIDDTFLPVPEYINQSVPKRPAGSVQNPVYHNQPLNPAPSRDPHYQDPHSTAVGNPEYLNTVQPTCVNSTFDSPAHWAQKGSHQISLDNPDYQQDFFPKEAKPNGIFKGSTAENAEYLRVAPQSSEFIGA
Sequence of neurotensin-1 receptor (NTR1) (P30989 whole entry, species assumed): as the sequence (P30989 whole entry) above

**Q.** For `CC(C)c1ccc2c(c1)c(SC(C)(C)C)c(CC(C)(C)C(=O)O)n2Cc1ccc(Cl)cc1` [MK886], which “increase in EGF binding” value (EGF receptor) is on record?
**A.** 65%

**Q.** What about the IC50 (5-LOX) of the same compound?
**A.** 100 to 1000 nM

**Q.** And the “Specific Binding (% control) of ^125I-[Nle14]-bombesin” value (bombesin receptor; 12 μM LOX blocker)?
**A.** 106 ± 5 % control

**Q.** What about the “Specific Binding (% control) of ^125I-[Nle14]-bombesin” value (bombesin receptor; 60 μM LOX blocker) of the same compound?
**A.** 125 ± 7 % control

**Q.** What about the “Specific NT-Binding (% control)” value (NTR1 [1]; 10 μM LOX pathway blocker) of the same compound?
**A.** 99 ± 3 % control

**Q.** What about the “Specific NT-Binding (% control)” value (NTR1 [1]; 25 μM LOX pathway blocker) of the same compound?
**A.** 107 ± 4 % control

**Q.** What about the “Specific NT-Binding (% control)” value (NTR1 [1]; 75 μM LOX pathway blocker) of the same compound?
**A.** 97 ± 4 % control

**Q.** And the “NT Binding Efficacy % increase” value (NTR1 [2]; LOX blockers)?
**A.** 210 % increase

**Q.** What about the “maximal increase in NT binding to PC3 cells” value (NTR1 [2]; as much as / up to, dose-response) of the same compound?
**A.** ≤ 3.0 fold

**Q.** What about the EC50 (NTR1 [2]; read-out: NT Binding EC50, [agent] giving 100% increase in NT binding) of the same compound?
**A.** 18000 nM

**Q.** And the “radioactivity associated with NTR1” value (NTR1 [3])?
**A.** 2.7±0.3 fold

**Q.** For `O=C(CCc1ccc(O)cc1)c1c(O)cc(O)cc1O` [Phloretin], which “Specific Binding (% control) of ^125I-[Nle^14]-bombesin” value (bombesin receptor; 12 μM agent) is on record?
**A.** 104 ± 3 % control

**Q.** And the “Specific Binding (% control) of ^125I-[Nle^14]-bombesin” value (bombesin receptor; 60 μM agent)?
**A.** 111 ± 4 % control

**Q.** And the “IP Formation Efficacy (% decrease)” value (NTR1 [4])?
**A.** 70 % decrease

**Q.** What about the “Specific NT-Binding (% control)” value (NTR1 [1]; 10 μM agent, 22° C., 60 minutes) of the same compound?
**A.** 110 ± 7 % control

**Q.** What about the “Specific NT-Binding (% control)” value (NTR1 [1]; 25 μM agent) of the same compound?
**A.** 105 ± 8 % control

**Q.** What about the “Specific NT-Binding (% control)” value (NTR1 [1]; 75 μM agent) of the same compound?
**A.** 97 ± 8 % control

**Q.** And the “NT Binding Efficacy % increase” value (NTR1 [2]; maximal % increase in NT binding observed for each agent)?
**A.** 186 % increase

**Q.** And the Internalization rate (NTR1 [5])?
**A.** 8.1±0.7 %/minute

**Q.** For “Trp 11 NT(1-13): peptide identical to NT (1-13) except tryptophan for tyrosine at amino acid 11 (QLYENKPRRPWIL; ends and bridges not checked; UniProt P30990 151-163, looked up, variant Y11W)”, which Kd [6] is on record?
**A.** ~1 nM

**Q.** And the Kd [7]?
**A.** ~27 nM

**Q.** Which “stimulation of IP formation” value (PC3 cells) does the source give for `Nc1ncnc2c1ncn2[C@@H]1O[C@H](COP(=O)(O)OP(=O)(O)OP(=O)(O)O)[C@@H](O)[C@H]1O` [ATP] here?
**A.** ~17 fold and > 15 fold
